# Test results reported in patent US9469615B2, “Quinoxalines and AZA-quinoxalines as CRTH2 receptor modulators” (Merck Sharp & Dohme Corp., priority 2010, dated 2016).
# Target: T1, hCRTH2 (Homo sapiens, UniProt Q9Y5Y4)
# T1 construct: expressed in transfected cells; host or cells: HEK (human embryonic kidney) cells expressing hCRTH2; membrane preparation
# T1 sequence (Q9Y5Y4 1-395): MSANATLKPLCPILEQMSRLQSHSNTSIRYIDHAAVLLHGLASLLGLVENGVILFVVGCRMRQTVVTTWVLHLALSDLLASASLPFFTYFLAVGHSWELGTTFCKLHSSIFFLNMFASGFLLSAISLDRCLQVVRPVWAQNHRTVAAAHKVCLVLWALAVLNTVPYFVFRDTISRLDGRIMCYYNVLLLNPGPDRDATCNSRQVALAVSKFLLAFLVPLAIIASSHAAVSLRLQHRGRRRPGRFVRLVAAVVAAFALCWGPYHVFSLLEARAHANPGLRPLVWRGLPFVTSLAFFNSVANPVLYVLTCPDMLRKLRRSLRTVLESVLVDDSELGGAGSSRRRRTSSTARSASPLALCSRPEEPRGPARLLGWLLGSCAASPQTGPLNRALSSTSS
# Assay: Radioligand binding assay ([3H]PGD2 competition, HEK-hCRTH2 membranes)
# Settings: [3H]PGD2 binding, rated A-E (Table A)
# In short: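 Filter-bound radioactivity was counted by scintillation after 60 min incubations at room temperature. Membranes (8-20 μg) from HEK cells expressing hCRTH2 competed test ligands against 3.0 nM [3H]PGD2 in Tris-HCl pH 7.4 buffer with EDTA and 2 mM MnCl2; 10 μM PGD2 set non-specific binding.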
row,Ki [nM],SMILES
1,0.1 to 2,"N#Cc1ccc(C2CN(C(=O)c3ccc4nc(-c5ccccc5)c(CCCCC(=O)O)nc4c3)C2)cc1 [compound 174, 7-[[3-(4-cyanophenyl)-1-azetidinyl]carbonyl]-3-phenyl-2-quinoxalinepentanoic acid]"
2,2.1 to 20,"CNC(=O)c1ccc2nc(-c3ccccc3)c(CCCCC(=O)O)nc2c1 [15BG, 5-[7-(methylcarbamoyl)-3-phenylquinoxalin-2-yl]pentanoic acid]"
3,0.1 to 2,"O=C(O)CCCCc1nc2cc(C(=O)NCc3ccc(C(F)(F)F)cc3)ccc2nc1-c1ccc(Cl)cc1 [16U, 3-(4-chlorophenyl)-7-[[[[4-(trifluoromethyl)phenyl]methyl]amino]carbonyl]-2-quinoxalinepentanoic acid]"
4,2.1 to 20,"C[C@H](NC(=O)c1ccc2nc(-c3ccc(F)cc3)c(CCCCC(=O)O)nc2c1)c1ccc(F)cc1 [compound 111, 3-(4-fluorophenyl)-7-[[[1(S)-(4-fluorophenyl)ethyl]amino]carbonyl]-2-quinoxalinepentanoic acid]"
5,0.1 to 2,"CC(C)C(=O)c1ccc2nc(-c3ccc(F)cc3)c(CCCCC(=O)O)nc2c1 [7C, 3-(4-fluorophenyl)-7-(2-methyl-1-oxopropyl)-2-quinoxalinepentanoic acid]"
6,0.1 to 2,"CN(Cc1ccccc1)C(=O)c1ccc2nc(-c3ccc(F)cc3)c(CCc3cccc(CC(=O)O)c3)nc2c1 [compound 202, 3-[2-[3-(4-fluorophenyl)-7-[[methyl(phenylmethyl)amino]carbonyl]-2-quinoxalinyl]ethyl] benzeneacetic acid]"
7,2.1 to 20,"C[C@@H](c1ccc(Cl)cc1)N(C)C(=O)c1ccc2nc(-c3ccccc3)c(CCCCC(=O)O)nc2c1 [compound 239, 7-[[[1(S)-(4-chlorophenyl)ethyl]methylamino]carbonyl]-3-phenyl-2-quinoxalinepentanoic acid]"
8,20.1 to 200,"O=C(O)CCCCc1nc2cc(C(=O)N3CCC(c4ccccc4)CC3)ccc2nc1-c1cncc(Cl)c1 [26R, 3-(5-chloro-3-pyridinyl)-7-[(4-phenyl-1-piperidinyl)carbonyl]-2-quinoxalinepentanoic acid]"
9,0.1 to 2,"O=C(O)CCCCc1nc2cc(C(=O)N3CCC(c4ccccc4)CC3)ccc2nc1-c1ccc(OC(F)(F)F)cc1 [26N, 7-[(4-phenyl-1-piperidinyl)carbonyl]-3-[4-(trifluoromethoxy)phenyl]-2-quinoxalinepentanoic acid]"
10,0.1 to 2,"O=C(O)CCCCc1nc2cc(C(=O)N[C@@H]3CCCc4cc(F)ccc43)ccc2nc1-c1ccccc1 [compound 254, 7-[[(6-fluoro-1,2,3,4-tetrahydro-1(R)-naphthalenyl)amino]carbonyl]-3-phenyl-2-quinoxalinepentanoic acid]"
11,2.1 to 20,"O=C(O)CCCNc1nc2cc(C(=O)N3CCN(c4ccccc4)CC3)ccc2nc1-c1ccccc1 [44F, 4-((3-phenyl-7-(4-phenylpiperazine-1-carbonyl)quinoxalin-2-yl)amino)butanoic acid]"
12,0.1 to 2,"O=C(O)CCCCc1nc2cc(C(=O)N[C@@H]3CCc4ccccc43)ccc2nc1-c1ccc(F)cc1 [compound 229, 7-[[(2,3-dihydro-1H-inden-1(R)-yl)amino]carbonyl]-3 - (4-fluorophenyl)-2-quinoxalinepentanoic acid]"
13,2.1 to 20,"C[C@H](NC(=O)c1ccc2nc(-c3ccc(F)cc3)c(CCCCC(=O)O)nc2c1)c1ccc(Cl)cc1 [compound 131, 7-[[[1(S)-(4-chlorophenyl)ethyl]amino]carbonyl]-3-(4-fluorophenyl)-2-quinoxalinepentanoic acid]"
14,2.1 to 20,"O=C(O)CCCCc1nc2cc(C(=O)N[C@H](c3ccccc3)C(F)(F)F)ccc2nc1-c1ccc(Cl)cc1 [16AH, 3-(4-chlorophenyl)-7-[[(2,2,2-trifluoro-1(R)-phenylethyl)amino]carbonyl]-2-quinoxalinepentanoic acid]"
15,2.1 to 20,CN1C(=O)C2(CCN(C(=O)c3ccc4nc(-c5ccccc5)c(CCCCC(=O)O)nc4c3)CC2)c2ccccc21 [compound 119]

# Same assay, conditions: [3H]PGD2 competition, Table B
row,Ki [nM],SMILES
1,201 to 700,"O=C(O)Cc1cccc(CCCc2nc3cc(C(=O)N[C@H]4CCCc5ccccc54)ccc3nc2-c2ccc(F)cc2)c1 [compound 270, (S)-2-(3-(3-(3-(4-fluorophenyl)-7-((1,2,3,4-tetrahydronaphthalen-1-yl)carbamoyl)quinoxalin-2-yl)propyl)phenyl)acetic acid]"
2,0.1 to 2,"O=C(O)CCCCc1nc2cc(C(=O)N3CC(c4cccc(F)c4)C3)ccc2nc1-c1ccc(Cl)cc1 [compound 419, 5-(3-(4-chlorophenyl)-7-(3-(3-fluorophenyl)azetidine-1-carbonyl)quinoxalin-2-yl)pentanoic acid]"
3,2.1 to 20,"CC(CCc1nc2cc(C(=O)N[C@H]3CCCc4ccccc43)ccc2nc1-c1ccc(F)cc1)CC(=O)O (stereo partly drawn) [compound 433, 5-(3-(4-fluorophenyl)-7-(((S)-1,2,3,4-tetrahydronaphthalen-1-yl)carbamoyl)quinoxalin-2-yl)-3-methylpentanoic acid]"
4,20.1 to 200,"O=C(N[C@@H]1CCc2cc(F)ccc21)c1ccc2nc(-c3ccc(F)cc3)c(CCCC(F)(F)C(=O)O)nc2c1 [compound 476, (R)-2,2-dilluoro-5-(7-((5-fluoro-2,3-dihydro-1H-inden-1-yl)carbamoyl)-3-(4-fluorophenyl)quinoxalin-2-yl)pentanoic acid]"
5,0.1 to 2,"COc1cccc(C2CN(C(=O)c3ccc4nc(-c5ccccc5)c(CCCCC(=O)O)nc4c3)C2)c1 [compound 390, 5-(7-(3-(3-methoxyphenyl)azetidine-1-carbonyl)-3-phenylquinoxalin-2-yl)pentanoic acid]"
6,2.1 to 20,"O=C(O)CCCCc1nc2cc(C(=O)N[C@@H]3CCSc4ccccc43)ccc2nc1-c1ccccc1 [compound 301, (R)-5-(3-phenyl-7-(thiochroman-4-ylcarbamoyl)quinoxalin-2-yl)pentanoic acid]"
7,2.1 to 20,"C[C@H](CCc1nc2cc(C(=O)N[C@H](C)c3ccc(F)cc3)ccc2nc1-c1ccc(Cl)cc1)CC(=O)O [compound 441, (R)-5-(3-(4-chlorophenyl)-7-(((R)-1-(4-fluorophenyl)ethyl)carbamoyl)quinoxalin-2-yl)-3-methylpentanoic acid]"
8,0.1 to 2,"COc1ccccc1C1CCN(C(=O)c2ccc3nc(-c4ccc(Cl)cc4)c(CCCCC(=O)O)nc3c2)CC1 [compound 632, 5-(3-(4-chlorophenyl)-7-(4-(2-methoxyphenyl)piperidine-1-carbonyl)quinoxalin-2-yl)pentanoic acid]"
9,20.1 to 200,"CC(c1ccoc1)N(C)C(=O)c1ccc2nc(-c3ccc(Cl)cc3)c(CCCCC(=O)O)nc2c1 (stereo not drawn) [compound 649, 5-(3-(4-chlorophenyl)-7-((1-(furan-3-yl)ethyl)(methyl)carbamoyl)quinoxalin-2-yl) pentanoic acid]"
10,2.1 to 20,"Cc1ccc(CNC(=O)c2ccc3nc(-c4ccc(Cl)cc4)c(CC4CCC(C(=O)O)C4)nc3c2)cc1 (stereo not drawn) [compound 393, 3-((3-(4-chlorophenyl)-7-((4-methylbenzyl)carbamoyl)quinoxalin-2-yl)methyl)cyclopentane-carboxylic acid]"
11,2.1 to 20,"O=C(O)CCCCc1nc2cc(C(=O)N3CC(c4nc(-c5ccncc5)no4)C3)ccc2nc1-c1ccc(Cl)cc1 [compound 326, 5-(3-(4-chlorophenyl)-7-(3-(3-(pyridin-4-yl)-1,2,4-oxadiazol-5-yl)azetidine-1-carbonyl)quinoxalin-2-yl)pentanoic acid]"
12,2.1 to 20,"O=C(O)CCCCc1nc2cc(C(=O)N[C@H]3c4ccccc4C[C@@H]3O)ccc2nc1-c1ccc(F)cc1 [compound 511, 5-(3-(4-fluorophenyl)-7-(((1S,2S)-2-hydroxy-2,3-dihydro-1H-inden-1-yl)carbamoyl)quinoxalin-2-yl)pentanoic acid]"
13,201 to 700,"C[C@H](CCc1nc2cc(C(=O)N3CC[C@@H](c4ccccc4)C3)ccc2nc1-c1ccccc1)CC(=O)O [compound 282, (R)-3-methyl-5-(3-phenyl-7-((S)-3-phenylpyrrolidine-1-carbonyl)quinoxalin-2-yl)pentannic acid]"
14,20.1 to 200,"C[C@@H](CCCc1nc2cc(C(=O)N[C@@H]3CCCc4ncccc43)ccc2nc1-c1ccc(F)cc1)C(=O)O [compound 521, (S)-5-(3-(4-fluorophenyl)-7-(((R)-5,6,7,8-tetrahydroquinolin-5-yl)carbamoyl)quinoxalin-2-yl)-2-methylpentanoic acid]"
15,2.1 to 20,"Cc1csc(C(C)N(C)C(=O)c2ccc3nc(-c4ccc(Cl)cc4)c(CCCCC(=O)O)nc3c2)n1 (stereo not drawn) [compound 655, 5-(3-(4-chlorophenyl)-7-(methyl(1-(4-methylthiazol-2-yl)ethyl)carbamoyl)quinoxalin-2-yl)pentanoic acid]"
16,20.1 to 200,O=C(N[C@@H]1CCOc2ccccc21)c1ccc2nc(-c3ccc(F)cc3)c(CCCC(F)(F)C(=O)O)nc2c1 [compound 547]
17,2.1 to 20,"C[C@H]1CN(c2ccc(Cl)cc2)CCN1C(=O)c1ccc2nc(-c3ccc(Cl)cc3)c(CCCCC(=O)O)nc2c1 [compound 541, (S)-5-(3-(4-chlorophenyl)-7-(4-(4-chlorophenyl)-2-methylpiperazine-1-carbonyl)quinoxalin-2-yl)pentanoic acid]"
18,2.1 to 20,"C[C@@H](CCCc1nc2cc(C(=O)N[C@@H]3CCc4cc(F)ccc43)ccc2nc1-c1ccc(F)cc1)C(=O)O [compound 523, (S)-5-(7-(((R)-5-fluoro-2,3-dihydro-1H-inden-1-yl)carbamoyl)-3-(4-fluorophenyl)quinoxalin-2-yl)-2-methylpentanoic acid]"
